Measured values from patent US10287267B2, “Isoquinolin-3-yl carboxamides and preparation and use thereof” (Samumed, LLC, priority 2016, dated 2019).
Where two headings read alike, the source gives them in different places.

What was measured:
[1] = test system: Wnt pathway (Sp5-Luc reporter, TCF/LEF binding sites) in SW480 colon carcinoma cells; assay: Screening assay for Wnt activity: Sp5-Luc reporter gene assay; type: cell-based, human; settings: Homo sapiens; for EC50: Sp5-Luc reporter, SW480 cells, 36 to 48 hours; for inhibition at 10 µM: SW480, read-out: percent inhibition at 10 μM;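 for all read-outs here: firefly luciferase luminescence read in stably transduced SW480 cells carrying the Sp5 promoter reporter with eight TCF/LEF sites, compounds given in 0.1% DMSO final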
Procedure: The screening assay for Wnt activity is described as follows.
Following incubation, 15 μl of BriteLite Plus luminescence reagent (Perkin Elmer) was added to each well of the 384-well assay plates. The plates were placed on an orbital shaker for 2 min and then luminescence was quantified using the Envision (Perkin Elmer) plate reader.

[2] = test system: Tau phosphorylation at Ser396 (pSer396); assay: Tau phosphorylation assay (pSer396 ELISA / western blot) in SH-SY5Y cells; type: cell-based, human; settings: Homo sapiens, read-out: pSer396 Tau EC50;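 note: EC50 for reduction of Tau pSer396 in lysed cells, measured by colorimetric ELISA or chemiluminescent western blot, both using the same pSer396 antibody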
[3] = test system: α-smooth muscle actin (αSMA) positive LL29 cells; assay: Inhibition of fibrotic process: αSMA in TGF-β1 treated primary human fibroblasts from IPF patients; type: cell-based; settings: Homo sapiens, Fibroblast; for EC50: 96 h, Table 8, LL29 fibroblasts from IPF patients, TGF-β1 20 ng/mL, 4 days, dose-response 10 μM to 0.94 nM;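 for all read-outs here: controls were TGF-β1 stimulated wells with DMSO vehicle (positive) and cells given DMSO alone (negative), cultured in F12 medium with 1% fetal bovine serum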
[4] = biological target: recombinant DYRK1A kinase (Homo sapiens (Human), UniProt Q13627); assay: DYRK1A kinase assay (Ser/Thr 18 peptide Z-lyte FRET); type: biochemical; settings: 30 μM ATP, 1 h room temperature;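 note: Read-out is the coumarin to fluorescein emission ratio, referenced to unphosphorylated (0%) and phosphorylated (100%) Ser/Thr 18 peptide controls, values from dose-response curves by non-linear regression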
[5] = test system: secreted β-amyloid 40 (Aβ40) peptide; assay: Secreted β-amyloid 40 (Aβ40) peptide in APP overexpressing SH-SY5Y-APP cells; type: cell-based; settings: Homo sapiens, overnight (16-18 hours)
Procedure: Representative compounds were screened using the cell-based assay procedure for secreted β-amyloid 40 (Aβ40) peptide in an APP overexpressing cell line described below.
SH-SY5Y cells were infected with lentivirus to overexpress amyloid (A4) beta precursor protein (APP), hereafter referred to as the SH-SY5Y-APP cells.
SH-SY5Y cells were seeded onto 6-well plates at
The cell assay procedure start 18 h prior to treatment, as SH-SY5Y-APP cells were seeded onto 96-well plates at
At this time, designated wells were seeded with SH-SY5Y cells that were seeded and treated with puromycin at
Cells were exposed overnight (16-18 hours) in a 37° C. incubator before supernatant was harvested. […] The original plates with seeded cells were tested for cytotoxicity by measure of adenosine triphosphate (ATP) release by adding CellTiter-Glo® diluted 1:4 in distilled water (G7573, Promega) and transferring lysed cells to a completely black 96-well plate to be read with the Cytation3. Plates containing supernatant were spun down at 1200 g for 10 minutes to remove any cellular debris. Supernatant was then diluted 1:2 with a diluent from V-PLEX Aβ40 Peptide (6E10) Kit and directly tested for secreted Aβ40 peptide (K150SKE, Meso Scale Discovery).

[6] = test system: SW480 colon carcinoma cells; assay: Cell viability assay (CellTiter-Glo); type: cell-based, human; settings: Homo sapiens; for EC50: 96 h, SW480 cells, CellTiter-Glo, four days incubation; for inhibition at 10 µM: SW480, read-out: percent inhibition at 10 μM
IL-6 = IL-6 inhibition in LPS-stimulated human peripheral blood mononuclear cells (HTRF); type: cell-based; settings: Homo sapiens, PBMC; for EC50: Table 9, huPBMCs, LPS 50 ng/mL, 22 hours, dose-response starting from 10 μM; for inhibition at 10 µM: read-out: percent value in parentheses beside EC50 >10 μM;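 for all read-outs here: IL-6 detected by HTRF with an XL665- and Cryptate-labelled anti-IL-6 antibody pair, samples run in duplicate, EC50 obtained from a four-parameter Levenberg-Marquardt curve fit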
Procedure: After 22 hour incubation, a mixture of anti-IL6 XL665 and anti-IL-6 Cryptate diluted in reconstitution buffer (Catalog #62IL6PEC, Cisbio Inc., Bedford, Mass.) was added to each well. […] All samples were processed in duplicate. […] EC50 was determined using software generated by Dotmatics Limited (Windhill Bishops Stortford Herts, UK) using the Levenberg-Marquardt 4 parameter fitting procedure with finite different gradients.

recombinant GSK3β kinase = recombinant GSK3β kinase (Homo sapiens (Human), UniProt P49841); assay: GSK3β kinase assay (Ser/Thr 09 peptide Z-lyte FRET); type: biochemical; settings: 46 μM ATP, 1 h room temperature;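 note: kinase activity read as coumarin to fluorescein emission ratio, 11-point threefold dilutions from 10 µM to 0.0003 µM in duplicate, unphosphorylated and phosphorylated peptide as 0% and 100% controls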
Sequence of recombinant GSK3β kinase (P49841 whole entry): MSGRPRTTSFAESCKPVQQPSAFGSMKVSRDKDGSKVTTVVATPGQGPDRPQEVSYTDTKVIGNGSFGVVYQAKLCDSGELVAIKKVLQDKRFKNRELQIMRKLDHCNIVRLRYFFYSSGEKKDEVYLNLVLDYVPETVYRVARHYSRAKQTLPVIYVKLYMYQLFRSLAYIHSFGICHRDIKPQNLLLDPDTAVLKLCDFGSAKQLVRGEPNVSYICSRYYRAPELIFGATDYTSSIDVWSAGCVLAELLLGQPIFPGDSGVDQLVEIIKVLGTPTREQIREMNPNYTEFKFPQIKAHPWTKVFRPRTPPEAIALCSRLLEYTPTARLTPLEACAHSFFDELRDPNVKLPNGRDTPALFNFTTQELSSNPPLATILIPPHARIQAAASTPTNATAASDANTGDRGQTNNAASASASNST

[7] = SH-SY5Y cells, overnight (16-18 h) exposure

SMILES	EC50 [1] [nM]	EC50 [2, 7] [nM]	EC50 [3] [nM]	EC50 [4] [nM]	IC50 [5] [nM]	EC50 [6] [nM]	EC50 (IL-6) [nM]	EC50 (recombinant GSK3β kinase) [nM]	inhibition at 10 µM ([3]; read-out: percent value in parentheses beside EC50 >10 μM) [%]	inhibition at 10 µM (IL-6) [%]	inhibition at 10 µM [1] [%]	EC50 ([2]; SH-SY5Y) [nM]	inhibition at 10 µM [6] [%]
Cn1cc(-c2ccc3cnc(NC(=O)C4CC4)cc3c2)cn1 [Compound 1, N-(6-(1-Methyl-1H-pyrazol-4-yl)isoquinolin-3-yl)cyclopropanecarboxamide]	650	149	135	4	3960	130	338	8					
Cn1cc(-c2ccc3cnc(NC(=O)C4CCNCC4)cc3c2)cn1 [Compound 72, N-(6-(1-methyl-1H-pyrazol-4-yl)isoquinolin-3-yl)piperidine-4-carboxamide]	920	757	96	2.5	2100	911	1130	64					
Cn1cc(-c2ccc3cnc(NC(=O)C4CCN(C5CC5)CC4)cc3c2)cn1 [Compound 76, 1-Cyclopropyl-N-(6-(1-methyl-1H-pyrazol-4-yl)isoquinolin-3-yl)piperidine-4-carboxamide]	705	219	87	2.3	1200	1560	1130	31					
Cn1cc(-c2ccc3cnc(NC(=O)C4CCN(CC(C)(C)C)CC4)cc3c2)cn1 [Compound 78, N-(6-(1-Methyl-1H-pyrazol-4-yl)isoquinolin-3-yl)-1-neopentylpiperidine-4-carboxamide]	1000	265	108	4.7	889	1840	2940	63					
Cn1cc(-c2ccc3cnc(NC(=O)C4CCN(CCC(F)(F)F)CC4)cc3c2)cn1 [Compound 82, N-(6-(1-Methyl-1H-pyrazol-4-yl)isoquinolin-3-yl)-1-(3,3,3-trifluoropropyl) piperidine-4-carboxamide]	4950	315	156	0.9	5100	2710	1190	22					
Cn1cc(-c2ccc3cnc(NC(=O)[C@@H]4CCCNC4)cc3c2)cn1 [Compound 111, (R)—N-(6-(1-Methyl-1H-pyrazol-4-yl)isoquinolin-3-yl)piperidine-3-carboxamide]	743	597	280	3.9	272	526		40					
CN(CC(=O)Nc1cc2cc(-c3cnc4n3CCNC4)ccc2cn1)C1CCC1 [Compound 1031, 2-(Cyclobutyl(methyl)amino)-N-(6-(5,6,7,8-tetrahydroimidazo[1,2-a]pyrazin-3-yl)isoquinolin-3-yl)acetamide]	3970	969	> 10000	70.4		3890	> 10000	380	39.2	2			
Cn1cc(-c2ccc3cnc(NC(=O)C45CCN(CC4)CC5)cc3c2)cn1 [Compound 1071, N-(6-(1-Methyl-1H-pyrazol-4-yl)isoquinolin-3-yl)quinuclidine-4-carboxamide]	> 10000		712	16.5		> 10000	> 10000	2730		8.8	43.2	6900	26.2
CC(C)CN1CCC(F)(C(=O)Nc2cc3cc(-n4ccnn4)ccc3cn2)CC1 [Compound 1074, N-(6-(1H-1,2,3-triazol-1-yl)isoquinolin-3-yl)-4-fluoro-1-isobutylpiperidine-4-carboxamide]	> 10000	1300	> 10000	6.9		> 10000	> 10000	278		5.6	19.7		25
